Measurements as given in ChEMBL document CHEMBL5055675, “Apoptosis Inducing 1,3,4-Oxadiazole Conjugates of Capsaicin: Their In Vitro Antiproliferative and In Silico Studies” (ACS Med Chem Lett, 2021).

Assays:
Assay type in all cases: functional
SNB-19 = assay: Antiproliferative activity against human SNB-19 cells assessed as cell growth at 10 uM incubated for 48 hrs by sulforhodamine B assay relative to control; settings: read-out: Activity
A549 = assay: Antiproliferative activity against human A549/ATCC cells assessed as cell growth at 10 uM incubated for 48 hrs by sulforhodamine B assay relative to control; settings: read-out: Activity
OVCAR-3 = assay: Antiproliferative activity against human OVCAR-3 cells assessed as cell growth at 10 uM incubated for 48 hrs by sulforhodamine B assay relative to control; settings: read-out: Activity
HL-60(TB) = assay: Antiproliferative activity against human HL-60 (TB) cells assessed as cell growth at 10 uM incubated for 48 hrs by sulforhodamine B assay relative to control; settings: read-out: Activity
A498 = assay: Antiproliferative activity against human A498 cells assessed as cell growth at 10 uM incubated for 48 hrs by sulforhodamine B assay relative to control; settings: read-out: Activity
HCT-116 = assay: Antiproliferative activity against human HCT-116 cells assessed as cell growth inhibition measured after 72 hrs by crystal violet staining based assay; settings: HCT-116, 72 h
HCT-15 = assay: Antiproliferative activity against human HCT-15 cells assessed as cell growth at 10 uM incubated for 48 hrs by sulforhodamine B assay relative to control; settings: read-out: Activity
SF-295 = assay: Antiproliferative activity against human SF-295 cells assessed as cell growth at 10 uM incubated for 48 hrs by sulforhodamine B assay relative to control; settings: read-out: Activity
NCI-H522 = assay: Antiproliferative activity against human NCI-H522 cells assessed as cell growth at 10 uM incubated for 48 hrs by sulforhodamine B assay relative to control; settings: read-out: Activity
UO-31 = assay: Antiproliferative activity against human UO-31 cells assessed as cell growth at 10 uM incubated for 48 hrs by sulforhodamine B assay relative to control; settings: read-out: Activity
COLO 205 = assay: Antiproliferative activity against human COLO 205 cells assessed as cell growth at 10 uM incubated for 48 hrs by sulforhodamine B assay relative to control; settings: read-out: Activity
PC-3 = assay: Antiproliferative activity against human PC-3 cells assessed as cell growth at 10 uM incubated for 48 hrs by sulforhodamine B assay relative to control; settings: read-out: Activity
TK-10 = assay: Antiproliferative activity against human TK-10 cells assessed as cell growth at 10 uM incubated for 48 hrs by sulforhodamine B assay relative to control; settings: read-out: Activity
OVCAR-4 = assay: Antiproliferative activity against human OVCAR-4 cells assessed as cell growth at 10 uM incubated for 48 hrs by sulforhodamine B assay relative to control; settings: read-out: Activity
NCI-H23 = assay: Antiproliferative activity against human NCI-H23 cells assessed as cell growth at 10 uM incubated for 48 hrs by sulforhodamine B assay relative to control; settings: read-out: Activity
SK-MEL-28 = assay: Antiproliferative activity against human SK-MEL-28 cells assessed as cell growth at 10 uM incubated for 48 hrs by sulforhodamine B assay relative to control; settings: read-out: Activity
MCF7 = assay: Antiproliferative activity against human MCF7 cells assessed as cell growth at 10 uM incubated for 48 hrs by sulforhodamine B assay relative to control; settings: read-out: Activity
K562 = assay: Antiproliferative activity against human K562 cells assessed as cell growth at 10 uM incubated for 48 hrs by sulforhodamine B assay relative to control; settings: read-out: Activity
M14 = assay: Antiproliferative activity against human M14 cells assessed as cell growth at 10 uM incubated for 48 hrs by sulforhodamine B assay relative to control; settings: read-out: Activity
LOX IMVI = assay: Antiproliferative activity against human LOX IMVI cells assessed as cell growth at 10 uM incubated for 48 hrs by sulforhodamine B assay relative to control; settings: read-out: Activity
Hs-578T = assay: Antiproliferative activity against human Hs-578T cells assessed as cell growth at 10 uM incubated for 48 hrs by sulforhodamine B assay relative to control; settings: read-out: Activity
ACHN = assay: Antiproliferative activity against human ACHN cells assessed as cell growth at 10 uM incubated for 48 hrs by sulforhodamine B assay relative to control; settings: read-out: Activity
MDA-MB-468 = assay: Antiproliferative activity against human MDA-MB-468 cells assessed as cell growth at 10 uM incubated for 48 hrs by sulforhodamine B assay relative to control; settings: read-out: Activity
BT-549 = assay: Antiproliferative activity against human BT-549 cells assessed as cell growth at 10 uM incubated for 48 hrs by sulforhodamine B assay relative to control; settings: read-out: Activity
EKVX = assay: Antiproliferative activity against human EKVX cells assessed as cell growth at 10 uM incubated for 48 hrs by sulforhodamine B assay relative to control; settings: read-out: Activity
HOP-62 = assay: Antiproliferative activity against human HOP-62 cells assessed as cell growth at 10 uM incubated for 48 hrs by sulforhodamine B assay relative to control; settings: read-out: Activity
RPMI-8226 = assay: Antiproliferative activity against human RPMI-8226 cells assessed as cell growth at 10 uM incubated for 48 hrs by sulforhodamine B assay relative to control; settings: read-out: Activity
T47D = assay: Antiproliferative activity against human T47D cells assessed as cell growth at 10 uM incubated for 48 hrs by sulforhodamine B assay relative to control; settings: read-out: Activity
SF-268 = assay: Antiproliferative activity against human SF-268 cells assessed as cell growth at 10 uM incubated for 48 hrs by sulforhodamine B assay relative to control; settings: read-out: Activity
NCI-H226 = assay: Antiproliferative activity against human NCI-H226 cells assessed as cell growth at 10 uM incubated for 48 hrs by sulforhodamine B assay relative to control; settings: read-out: Activity
SF-539 = assay: Antiproliferative activity against human SF-539 cells assessed as cell growth at 10 uM incubated for 48 hrs by sulforhodamine B assay relative to control; settings: read-out: Activity
OVCAR-5 = assay: Antiproliferative activity against human OVCAR-5 cells assessed as cell growth at 10 uM incubated for 48 hrs by sulforhodamine B assay relative to control; settings: read-out: Activity
NCI/ADR-RES = assay: Antiproliferative activity against human NCI/ADR-RES cells assessed as cell growth at 10 uM incubated for 48 hrs by sulforhodamine B assay relative to control; settings: read-out: Activity
DU-145 = assay: Antiproliferative activity against human DU-145 cells assessed as cell growth at 10 uM incubated for 48 hrs by sulforhodamine B assay relative to control; settings: read-out: Activity
CCRF-CEM = assay: Antiproliferative activity against human CCRF-CEM cells assessed as cell growth at 10 uM incubated for 48 hrs by sulforhodamine B assay relative to control; settings: read-out: Activity
SK-OV-3 = assay: Antiproliferative activity against human SK-OV-3 cells assessed as cell growth inhibition measured after 72 hrs by crystal violet staining based assay; settings: SK-OV-3, 72 h
NCI-H460 = assay: Antiproliferative activity against human NCI-H460 cells assessed as cell growth inhibition measured after 72 hrs by crystal violet staining based assay; settings: NCI-H460, 72 h
SW-620 = assay: Antiproliferative activity against human SW-620 cells assessed as cell growth at 10 uM incubated for 48 hrs by sulforhodamine B assay relative to control; settings: read-out: Activity
MDA-MB-435 = assay: Antiproliferative activity against human MDA-MB-435 cells assessed as cell growth at 10 uM incubated for 48 hrs by sulforhodamine B assay relative to control; settings: read-out: Activity

Row | SMILES | growth at 10 µM (SNB-19) [%] | growth at 10 µM (A549) [%] | growth at 10 µM (OVCAR-3) [%] | growth at 10 µM (HL-60(TB)) [%] | growth at 10 µM (A498) [%] | growth at 10 µM (HCT-15) [%] | growth at 10 µM (SF-295) [%] | growth at 10 µM (NCI-H522) [%] | growth at 10 µM (UO-31) [%] | growth at 10 µM (COLO 205) [%] | growth at 10 µM (PC-3) [%] | growth at 10 µM (TK-10) [%] | growth at 10 µM (OVCAR-4) [%] | growth at 10 µM (NCI-H23) [%] | growth at 10 µM (SK-MEL-28) [%] | growth at 10 µM (MCF7) [%] | growth at 10 µM (K562) [%] | growth at 10 µM (LOX IMVI) [%] | growth at 10 µM (Hs-578T) [%] | growth at 10 µM (ACHN) [%] | other results
1 | COc1cc(CNC(=O)CCCC/C=C/C(C)C)ccc1OCc1nnc(Nc2ccccc2F)o1 | 58.5 | 105 | 68.3 | 89.7 | 92.5 | 90.1 | 48 | 60.3 | 52.8 | 104 | 72.5 | 97.7 | 0.69 | 63.8 | 85.2 | 66.9 | 60.4 | 83.4 | 83.7 | 56 | IC50 (HCT-116): 10.5 µM; growth at 10 µM (M14): 99.7%; growth at 10 µM (MDA-MB-468): 58.9%; growth at 10 µM (BT-549): 77%; growth at 10 µM (EKVX): 77.1%; growth at 10 µM (HOP-62): 56.4%; growth at 10 µM (RPMI-8226): 64.9%; growth at 10 µM (T47D): 65%; growth at 10 µM (SF-268): 45.5%; growth at 10 µM (NCI-H226): 64.5%; growth at 10 µM (SF-539): 48.2%; growth at 10 µM (OVCAR-5): 77.7%; growth at 10 µM (NCI/ADR-RES): 43.4%; growth at 10 µM (DU-145): 88.7%; growth at 10 µM (CCRF-CEM): 83%; IC50 (SK-OV-3): 12.5 µM; IC50 (NCI-H460): 14.4 µM; growth at 10 µM (SW-620): 98.9%; growth at 10 µM (MDA-MB-435): 100%
2 | COc1cc(CNC(=O)CCCC/C=C/C(C)C)ccc1OCc1nnc(SCCc2c[nH]c3ccccc23)o1 | 77 | 79.4 | 88.3 | 50.2 | 73.3 | 68.6 | 68.8 | 59.4 | 45 | 71.2 | 56.9 | 91.7 | 71.7 | 66.6 | 104 | 58.8 | 40.7 | 55.2 | 81 | 76.5 | IC50 (HCT-116): 13.4 µM; growth at 10 µM (MDA-MB-468): 51.8%; growth at 10 µM (BT-549): 75%; growth at 10 µM (EKVX): 57.4%; growth at 10 µM (HOP-62): 92.8%; growth at 10 µM (T47D): 43%; growth at 10 µM (SF-268): 78.9%; growth at 10 µM (NCI-H226): 67.2%; growth at 10 µM (SF-539): 80.8%; growth at 10 µM (OVCAR-5): 102%; growth at 10 µM (NCI/ADR-RES): 56.5%; growth at 10 µM (DU-145): 94.9%; growth at 10 µM (CCRF-CEM): 34.7%; IC50 (SK-OV-3): 31.4 µM; IC50 (NCI-H460): 9.89 µM; growth at 10 µM (SW-620): 84.7%; growth at 10 µM (MDA-MB-435): 90.2%
3 | COc1cc(CNC(=O)CCCC/C=C/C(C)C)ccc1OCc1nnc(Nc2cccc(Br)c2)o1 | 99.5 | 95.4 | 88 | 79.8 | 77.8 | 90.2 | 84.2 | 68.6 | 64 | 110 | 87.9 | 104 | 85.1 | 66 | 107 | 83.7 | 65 | 88.9 | 93.7 | 85.1 | growth at 10 µM (M14): 93.3%; growth at 10 µM (MDA-MB-468): 48.1%; growth at 10 µM (BT-549): 76.4%; growth at 10 µM (EKVX): 78.1%; growth at 10 µM (HOP-62): 75.6%; growth at 10 µM (RPMI-8226): 70.3%; growth at 10 µM (T47D): 58.9%; growth at 10 µM (SF-268): 92.6%; growth at 10 µM (NCI-H226): 50.4%; growth at 10 µM (SF-539): 88.4%; growth at 10 µM (OVCAR-5): 91.1%; growth at 10 µM (NCI/ADR-RES): 87%; growth at 10 µM (DU-145): 89.8%; growth at 10 µM (CCRF-CEM): 81.8%; growth at 10 µM (SW-620): 95.4%; growth at 10 µM (MDA-MB-435): 101%
4 | COc1cc(CNC(=O)CCCC/C=C/C(C)C)ccc1OCc1nnc(Nc2ccc([N+](=O)[O-])cc2)o1 | 54 | 49 | 77.3 | 101 | 56.8 | 81.2 | 64.9 | 73 | 58.7 | 70.9 | 37.6 | 84.1 | 11.2 | 62.1 | 78.9 | 55.2 | 59.6 | 55.2 | 63.2 | 41.2 | IC50 (HCT-116): 8.55 µM; growth at 10 µM (M14): 69.6%; growth at 10 µM (MDA-MB-468): 53.8%; growth at 10 µM (BT-549): 108%; growth at 10 µM (EKVX): 74.7%; growth at 10 µM (HOP-62): 0%; growth at 10 µM (RPMI-8226): 52.3%; growth at 10 µM (T47D): 48.6%; growth at 10 µM (SF-268): 79.7%; growth at 10 µM (NCI-H226): 62.1%; growth at 10 µM (SF-539): 70.2%; growth at 10 µM (OVCAR-5): 101%; growth at 10 µM (NCI/ADR-RES): 79.6%; growth at 10 µM (DU-145): 62%; growth at 10 µM (CCRF-CEM): 78.8%; IC50 (SK-OV-3): 6.4 µM; IC50 (NCI-H460): 5.41 µM; growth at 10 µM (SW-620): 67.3%; growth at 10 µM (MDA-MB-435): 66.4%
